PubChem BioAssay AID1259408 (Genetic Toxicology Data Bank (GENE-TOX), 2018)
Calls of active or inactive are those of the source. How the calls were made is not given here.

Tested on: GENE-TOX genotoxicity assays, various organisms and cells
Assay: GENE-TOX mutagenicity studies
[1] = Species/Cell Type: Salmonella typhimurium (one or more of the five standard strains: TA98, TA100, TA1535, TA1537, and TA1538), Assay Type: Histidine reverse gene mutation, Ames assay, Assay Code: SALT, Evaluation Type: Evaluation A (Pre-1980)
[2] = Species/Cell Type: Allium cepa, Assay Type: Chromosome aberrations, Assay Code: ALC+D, Dose Response: With dose response, Evaluation Type: Evaluation A (Pre-1980)
[3] = Species/Cell Type: Nonhuman, Assay Type: Sister-chromatid exchange (SCE) in vitro, Assay Code: SC2T, Evaluation Type: Evaluation B (Post-1980)
[4] = Species/Cell Type: Salmonella typhimurium (one or more of the five standard strains: TA98, TA100, TA1535, TA1537, and TA1538), Assay Type: Histidine reverse gene mutation, Ames assay, Assay Code: SAL+, Evaluation Type: Evaluation A (Pre-1980)
[5] = Species/Cell Type: Nonhuman, Assay Type: Sister-chromatid exchange (SCE) in vitro, Assay Code: SC2+, Evaluation Type: Evaluation B (Post-1980)

SMILES: CCOP(=S)(OCC)SCSCC
- mutagenic call (Species/Cell Type: Bacillus subtilis (H17 vs M45), Assay Type: Rec-assay, spot test, DNA effects (bacterial DNA repair), Assay Code: REWT, Evaluation Type: Evaluation A (Pre-1980)): no conclusion
- mutagenic call (Species/Cell Type: Drosophila melanogaster, Assay Type: Sex-linked recessive lethal gene mutation, Assay Code: SRL-, Evaluation Type: Evaluation A (Pre-1980)): inactive; negative
- mutagenic call (Species/Cell Type: Escherichia coli WP2 UVRA, Assay Type: Tryptophan reverse gene mutation, Assay Code: WPU-*, Activation: With metabolic activation, Evaluation Type: Evaluation A (Pre-1980)): inactive; negative
- mutagenic call (Species/Cell Type: Escherichia coli polA (W3119 vs P3478), Assay Type: Rec-assay, DNA effects (bacterial DNA repair), Assay Code: RE1T, Evaluation Type: Evaluation A (Pre-1980)): no conclusion
- mutagenic call (Species/Cell Type: Hordeum vulgare (barley), Assay Type: Chromosome aberrations, Assay Code: HOC+D, Dose Response: With dose response, Evaluation Type: Evaluation A (Pre-1980)): active; positive
- mutagenic call (Species/Cell Type: Human diploid fibroblasts, Assay Type: Unscheduled DNA synthesis (UDS) in vitro, DNA effects, Assay Code: UDH-, Evaluation Type: Evaluation A (Pre-1980)): inactive; negative
- mutagenic call (Species/Cell Type: Human, Assay Type: Sister-chromatid exchange (SCE) in vitro, Assay Code: SC1+D, Dose Response: With dose response, Evaluation Type: Evaluation B (Post-1980)): active; positive
- mutagenic call (Species/Cell Type: Mammalian polychromatic erythrocytes, Assay Type: Micronucleus test, chromosome aberrations, Assay Code: MNT+U, Dose Response: Unconfirmed positive response, Evaluation Type: Evaluation B (Post-1980)): active; positive
- mutagenic call (Species/Cell Type: Saccharomyces cerevisiae, Assay Type: Mitotic recombination or gene conversion, Assay Code: YEH-, Evaluation Type: Evaluation A (Pre-1980)): inactive; negative
- mutagenic call [1]: no conclusion

SMILES: Oc1ccc2ccccc2c1N=Nc1cc[c]([Hg+])cc1
- mutagenic call [1]: no conclusion

SMILES: O=C(O)C(F)(F)F
- mutagenic call [1]: no conclusion

SMILES: CC(=O)[O-].CC(=O)[O-].O.O.O.[Pb+2]
- mutagenic call [2]: active; positive
- mutagenic call [3]: no conclusion

SMILES: CC(C)(C)OOCO
- mutagenic call (Species/Cell Type: Neurospora crassa, Assay Type: Reverse gene mutation, Assay Code: NER+, Evaluation Type: Evaluation A (Pre-1980)): active; positive

SMILES: CCCCN(CC(=O)O)N=O
- mutagenic call [1]: no conclusion

SMILES: ONc1ccc(-c2ccccc2)cc1
- mutagenic call [4]: active; positive

SMILES: O=C1NS(=O)(=O)c2ccccc21
- mutagenic call [2]: active; positive
- mutagenic call (Species/Cell Type: Drosophila melanogaster, Assay Type: Sex-linked recessive lethal gene mutation, Assay Code: SRL+, Evaluation Type: Evaluation A (Pre-1980)): active; positive
- mutagenic call (Species/Cell Type: Drosophila melanogaster, Sex: Male, Assay Type: Heritable translocation test, chromosome aberrations, Assay Code: DHTT, Evaluation Type: Evaluation A (Pre-1980)): no conclusion
- mutagenic call (Species/Cell Type: Escherichia coli polA (W3110 vs P3478), Assay Type: Rec-assay, DNA effects (bacterial DNA repair), Assay Code: RE2-, Evaluation Type: Evaluation A (Pre-1980)): inactive; negative
- mutagenic call (Species/Cell Type: Escherichia coli polA (W3119 vs P3478), Assay Type: Rec-assay, DNA effects (bacterial DNA repair), Assay Code: RE1-, Evaluation Type: Evaluation A (Pre-1980)): inactive; negative
- mutagenic call (Species/Cell Type: Human lymphocytes, Assay Type: Sister-chromatid exchange (SCE) in vitro, Assay Code: SCL+D, Dose Response: With dose response, Evaluation Type: Evaluation A (Pre-1980)): active; positive
- mutagenic call (Species/Cell Type: Human lymphocytes, Assay Type: Sister-chromatid exchange (SCE) in vitro, Assay Code: SCLT, Evaluation Type: Evaluation B (Post-1980)): no conclusion
- mutagenic call (Species/Cell Type: Human, Assay Type: Sister-chromatid exchange (SCE) in vitro, Assay Code: SC1+D, Dose Response: With dose response, Evaluation Type: Evaluation A (Pre-1980)): active; positive
- mutagenic call (Species/Cell Type: Human, Assay Type: Sister-chromatid exchange (SCE) in vitro, Assay Code: SC1T, Evaluation Type: Evaluation B (Post-1980)): no conclusion
- mutagenic call (Species/Cell Type: Mammalian polychromatic erythrocytes, Assay Type: Micronucleus test, chromosome aberrations, Assay Code: MNTT, Evaluation Type: Evaluation B (Post-1980)): no conclusion
- mutagenic call (Species/Cell Type: Mouse (C3H/10T1/2) cells, Assay Type: Cell transformation, Assay Code: CTH-, Evaluation Type: Evaluation A (Pre-1980)): inactive; negative
- mutagenic call (Species/Cell Type: Mouse lymphoma (L5178Y) cells, Assay Type: Forward gene mutation at the thymidine kinase (TK) locus, chromosome aberrations, Assay Code: L51T, Evaluation Type: Evaluation A (Pre-1980)): no conclusion
- mutagenic call (Species/Cell Type: Mouse, Sex: Male, Assay Type: Sperm morphology, Assay Code: SPI-, Evaluation Type: Evaluation A (Pre-1980)): inactive; negative
- mutagenic call (Species/Cell Type: Neurospora crassa, Assay Type: Aneuploidy, chromosome aberrations, Assay Code: NEN-, Evaluation Type: Evaluation A (Pre-1980)): inactive; negative
- mutagenic call (Species/Cell Type: Nonhuman, Assay Type: Sister-chromatid exchange (SCE) in vitro, Assay Code: SC2+D, Dose Response: With dose response, Evaluation Type: Evaluation A (Pre-1980)): active; positive
- mutagenic call (Species/Cell Type: Nonhuman, Assay Type: Sister-chromatid exchange (SCE) in vivo, Assay Code: SC3+D, Dose Response: With dose response, Evaluation Type: Evaluation B (Post-1980)): active; positive
- mutagenic call (Species/Cell Type: Rodents, Sex: Male, Assay Type: Dominant lethal test, Assay Code: DLT+, Evaluation Type: Evaluation A (Pre-1980)): active; positive
- mutagenic call (Species/Cell Type: Saccharomyces cerevisiae, Assay Type: Aneuploidy, chromosome aberrations, Assay Code: YEN+, Evaluation Type: Evaluation A (Pre-1980)): active; positive
- mutagenic call (Species/Cell Type: Saccharomyces cerevisiae, Assay Type: Mitotic recombination or gene conversion, Assay Code: YEC+, Evaluation Type: Evaluation A (Pre-1980)): active; positive
- mutagenic call (Species/Cell Type: Saccharomyces cerevisiae, Assay Type: Mitotic recombination or gene conversion, Assay Code: YEH+/-*, Activation: With metabolic activation, Evaluation Type: Evaluation A (Pre-1980)): inactive; positive without activation, negative with activation
- mutagenic call (Species/Cell Type: Saccharomyces cerevisiae, Assay Type: Reverse gene mutation, Assay Code: YER+, Evaluation Type: Evaluation A (Pre-1980)): active; positive
- mutagenic call (Species/Cell Type: Salmonella typhimurium (one or more of the five standard strains: TA98, TA100, TA1535, TA1537, and TA1538), Assay Type: Histidine reverse gene mutation, Ames assay, Assay Code: SAL-, Evaluation Type: Evaluation A (Pre-1980)): inactive; negative
- mutagenic call (Species/Cell Type: Salmonella typhimurium, Assay Type: Forward and reverse gene mutation, body fluid assay, Assay Code: BFU+, Evaluation Type: Evaluation A (Pre-1980)): active; positive
- mutagenic call (Species/Cell Type: Salmonella typhimurium, Assay Type: Forward and reverse gene mutation, host-mediated assay, Assay Code: HMA+, Evaluation Type: Evaluation A (Pre-1980)): active; positive
- mutagenic call (Species/Cell Type: Syrian hamster embryo (SHE) cells, Assay Type: Cell transformation, clonal assay, Assay Code: CTC-, Evaluation Type: Evaluation A (Pre-1980)): inactive; negative

SMILES: CC(C)NNC(=O)c1ccncc1
- mutagenic call (Species/Cell Type: Nonhuman, Assay Type: Sister-chromatid exchange (SCE) in vivo, Assay Code: SC3+, Evaluation Type: Evaluation B (Post-1980)): active; positive

SMILES: CC1=C(/C=C/C(C)=C/C=C/C(C)=C/C=O)C(C)(C)CCC1
- mutagenic call [3]: no conclusion

SMILES: COc1cccc2oc3c4c(cc(OC)c3c(=O)c12)O[C@H]1OC=C[C@@H]41
- mutagenic call [1]: no conclusion

SMILES: CC(C(=O)O)c1cccc(C(=O)c2ccccc2)c1 (stereo not given)
- mutagenic call (Species/Cell Type: Human lymphocytes, Assay Type: Sister-chromatid exchange (SCE) in vivo, Assay Code: SCY+, Evaluation Type: Evaluation B (Post-1980)): active; positive

SMILES: CCOP(=S)(NC(C)CC)Oc1cc(C)ccc1[N+](=O)[O-] (stereo not given)
- mutagenic call (Species/Cell Type: Salmonella typhimurium, Assay Type: Forward and reverse gene mutation, host-mediated assay, Assay Code: HMA-, Evaluation Type: Evaluation A (Pre-1980)): inactive; negative

SMILES: O[C@@H]1C=Cc2c(cc3ccc4cccc5ccc2c3c45)[C@@H]1O
- mutagenic call [1]: no conclusion

SMILES: C1N2CN3CN1CN(C2)C3
- mutagenic call (Species/Cell Type: Escherichia coli polA (W3119 vs P3478), Assay Type: Rec-assay, DNA effects (bacterial DNA repair), Assay Code: RE1+, Evaluation Type: Evaluation A (Pre-1980)): active; positive

SMILES: CC(=O)[O][Hg][c]1ccccc1
- mutagenic call (Species/Cell Type: Bacillus subtilis (H17 vs M45), Assay Type: Rec-assay, spot test, DNA effects (bacterial DNA repair), Assay Code: REW+, Evaluation Type: Evaluation A (Pre-1980)): active; positive
- mutagenic call (Species/Cell Type: Drosophila melanogaster, Assay Type: Aneuploidy, sex chromosome gain, chromosome aberrations, Assay Code: DAG+F, Evaluation Type: Evaluation A (Pre-1980)): active; positive
- mutagenic call (Species/Cell Type: Drosophila melanogaster, Assay Type: Aneuploidy, whole sex chromosome loss, chromosome aberrations, Assay Code: DAC+F, Evaluation Type: Evaluation A (Pre-1980)): active; positive

SMILES: O=C1c2c(O)ccc(O)c2C(=O)c2c(NCCNCCO)ccc(NCCNCCO)c21
- mutagenic call [5]: active; positive

SMILES: [NH4+].[O-2].[O-2].[O-2].[O-2].[O-2].[Sb+3].[W]
- mutagenic call (Species/Cell Type: Syrian hamster embryo (SA7/SHE) cells, Assay Type: Cell transformation, viral enhanced, Assay Code: CT7+, Evaluation Type: Evaluation A (Pre-1980)): active; positive

SMILES: O=[N+]([O-])c1ccc2ccc3cc4ccccc4c4ccc1c2c34
- mutagenic call (Species/Cell Type: Chinese hamster ovary (CHO) cells, Assay Type: Forward gene mutation at the HPRT locus, Assay Code: CHO+*, Activation: With metabolic activation, Evaluation Type: Evaluation B (Post-1980)): active; positive

SMILES: CCCCCCCCCCCCN=C(N)N
- mutagenic call (Species/Cell Type: Saccharomyces cerevisiae, Assay Type: Mitotic recombination or gene conversion, Assay Code: YEC-, Evaluation Type: Evaluation A (Pre-1980)): inactive; negative

SMILES: CCC(COS(C)(=O)=O)(COS(C)(=O)=O)COS(C)(=O)=O
- mutagenic call (Species/Cell Type: Arabidopsis species, Assay Type: Gene mutation, Assay Code: ARM+, Evaluation Type: Evaluation A (Pre-1980)): active; positive

SMILES: COc1cc([N+](=O)[O-])c2ncccc2c1
- mutagenic call [4]: active; positive

SMILES: O=C(C#Cc1ccc([N+](=O)[O-])o1)NC1CCCCC1
- mutagenic call (Species/Cell Type: Neurospora crassa, Assay Type: Forward gene mutation, Assay Code: NEF-, Evaluation Type: Evaluation A (Pre-1980)): inactive; negative

SMILES: CN(O)C(=O)c1ccc2ccccc2c1
- mutagenic call [5]: active; positive
